From PMC5808360, “Neutral Porphyrin Derivative Exerts Anticancer Activity by Targeting Cellular Topoisomerase I (Top1) and Promotes Apoptotic Cell Death without Stabilizing Top1-DNA Cleavage Complexes” (Journal of Medicinal Chemistry, 2017)

How the values were obtained:
[1] = molecular target: T1, EGFP-human Top1 in MCF7 cells (Homo sapiens, UniProt P11387); experiment: FRAP of EGFP-Top1 in live MCF7 cells; type: cell-based; settings: CPT 5 μM 10 min, then compound 20 μM 10 min
T1 construct: expressed in transfected cells; host or cells: MCF7 cells, transient transfection (Lipofectamine 2000)
T1 sequence (P11387 1-765): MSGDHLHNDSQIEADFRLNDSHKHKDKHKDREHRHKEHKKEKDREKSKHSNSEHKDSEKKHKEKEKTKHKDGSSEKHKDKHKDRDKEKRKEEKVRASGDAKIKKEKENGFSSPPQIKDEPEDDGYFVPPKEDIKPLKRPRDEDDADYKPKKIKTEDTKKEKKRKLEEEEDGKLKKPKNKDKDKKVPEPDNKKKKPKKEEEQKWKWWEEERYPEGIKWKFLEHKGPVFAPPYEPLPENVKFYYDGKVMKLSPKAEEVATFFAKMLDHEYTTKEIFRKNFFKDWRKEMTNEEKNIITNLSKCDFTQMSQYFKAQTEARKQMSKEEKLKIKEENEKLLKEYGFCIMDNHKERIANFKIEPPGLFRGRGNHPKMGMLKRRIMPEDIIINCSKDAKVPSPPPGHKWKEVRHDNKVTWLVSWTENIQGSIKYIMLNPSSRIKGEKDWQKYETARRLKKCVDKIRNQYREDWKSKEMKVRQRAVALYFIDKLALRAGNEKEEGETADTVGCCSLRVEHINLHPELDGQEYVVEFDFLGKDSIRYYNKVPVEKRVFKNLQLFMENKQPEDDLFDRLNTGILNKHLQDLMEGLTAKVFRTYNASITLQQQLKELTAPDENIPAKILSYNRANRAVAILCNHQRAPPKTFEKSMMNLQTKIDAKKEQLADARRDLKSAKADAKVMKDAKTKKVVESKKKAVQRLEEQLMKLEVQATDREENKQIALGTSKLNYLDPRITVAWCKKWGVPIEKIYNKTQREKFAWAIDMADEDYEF
Experimental: To obtain direct evidence for compound 8 mediated inhibition of Top1cc formation in live human carcinoma cells, we used MCF7 cells and transiently expressed EGFP-Top1. Live cells expressing ectopic Top1 were analyzed under laser confocal microscopy equipped with fluorescence recovery after photobleaching (FRAP) technology.[40]−[42]
Photobleaching experiments were performed as described formerly[40]−[42] using Andor Spining disk inverted confocal laser-scanning microscope equipped with a 60×/1.42 NA oil-immersion objective (Olympus) and with a CO2-controlled on-stage heated environmental chamber set to 37 °C. FRAP analyses were carried out with living MCF7 cells ectopically expressing EGFP-human Top1 grown on chamber cover glass (Genetix, India) and drug treated as indicated. For FRAP analysis, a subnuclear spot was bleached for 30 ms by solid-state laser line (488 nm for EGFP) adapted to the fluorescent protein of interest and FRAP curves were generated individually normalized to the prebleach signal as described previously.[42]

[2] = molecular target: T2, cellular Top1 in MCF7 cells (Homo sapiens, UniProt P11387); experiment: Western blot of Top1 in whole cell extracts of treated MCF7 cells; type: cell-based; settings: 10 μM, indicated times
T2 construct: endogenous in cells; host or cells: MCF7 cells
T2 sequence (P11387 2-765 limits assumed): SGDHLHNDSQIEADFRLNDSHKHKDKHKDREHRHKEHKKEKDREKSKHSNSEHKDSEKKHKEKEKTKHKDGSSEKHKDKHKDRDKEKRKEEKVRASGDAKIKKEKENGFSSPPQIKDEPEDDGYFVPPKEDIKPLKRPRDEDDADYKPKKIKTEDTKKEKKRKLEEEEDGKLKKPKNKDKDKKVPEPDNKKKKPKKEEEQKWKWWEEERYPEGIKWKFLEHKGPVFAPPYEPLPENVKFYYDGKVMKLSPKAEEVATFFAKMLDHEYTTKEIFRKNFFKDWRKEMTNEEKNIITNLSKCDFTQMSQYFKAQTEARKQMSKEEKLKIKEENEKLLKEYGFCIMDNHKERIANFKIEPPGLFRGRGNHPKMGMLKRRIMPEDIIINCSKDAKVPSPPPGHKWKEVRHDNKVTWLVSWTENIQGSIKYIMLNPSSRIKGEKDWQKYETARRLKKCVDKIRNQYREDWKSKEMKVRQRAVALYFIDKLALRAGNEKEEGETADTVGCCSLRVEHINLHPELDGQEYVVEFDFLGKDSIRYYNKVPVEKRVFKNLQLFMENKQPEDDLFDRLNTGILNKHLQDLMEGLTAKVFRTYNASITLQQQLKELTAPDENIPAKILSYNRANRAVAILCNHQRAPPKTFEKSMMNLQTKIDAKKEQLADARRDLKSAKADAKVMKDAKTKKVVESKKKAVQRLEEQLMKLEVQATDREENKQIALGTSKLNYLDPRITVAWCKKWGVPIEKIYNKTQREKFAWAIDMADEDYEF
Experimental: Because compound 8 binds with free Top1 (Figure 3) and inhibits Top1cc formation in live cells (Figure 2E), we examined the impact of compound 8 on endogenous Top1. Cellular lysates were prepared from MCF7 cells treated with compound 8 for indicated times and were analyzed by Western blotting. […] Because proteasome has been implicated for Top1 degradation,[7],[9],[45] we used proteasome specific inhibitor (MG132) to investigate Top1 proteolysis in compound 8 treated cells.
Preparation of whole cell extracts from MCF7 cells and immunoblotting were carried out as described.[6],[40],[41] Immunoreactivity was detected using ECL chemiluminescence reaction (Amersham) under ChemiDoc MP system (Bio-Rad, USA).

Top1cc in MCF7 cells = molecular target: T3, Top1cc in MCF7 cells (Homo sapiens, UniProt P11387); experiment: Immuno complex of enzyme (ICE) bioassay; type: cell-based
T3 construct: endogenous in cells; host or cells: MCF7 cells
T3 sequence (P11387 2-765 limits assumed): T2 sequence (P11387 2-765 limits assumed)
Experimental: Because compound 8 stimulates apoptosis (Figure 4C and Figure 5B), we examined accumulation of apoptotic Top1-DNA complexes in compound 8 treated cells (Figure 4D) by ICE bioassays.[15],[16] Top1cc related to apoptosis is due to secondary DNA modifications and is independent from direct Top1-drug interaction.[15]−[17] […] Therefore, proteasome mediated degradation of Top1 triggers compound 8 induced apoptosis without stabilizing apoptotic Top1-DNA covalent complexes. […] Genomic DNA was prepared and was briefly sonicated. Varying concentrations of DNA were spotted onto nitrocellulose membrane (Millipore, USA) using a slot-blot vacuum system (Biorad, USA). Immunoblotting was carried out with antihuman Top1 antibodies as described.[41]

[3] = tested on: MCF7 cells transfected with Top1 or Ctr siRNA; experiment: Cell survival (MTT) assay in MCF7 cells transfected with Top1 or control siRNA; type: cell-based, human
Experimental: To further confirm that Top1 is the cellular target for compound 8 mediated cytotoxicity, we have performed cytotoxicity assays in siRNA mediated Top1 knockdown cells (Figure 6G, inset).
Cell survival was assessed by 3-(4,5-dimethylthiazol-2-yl)-2,5-diphenyltetrazolium bromide (MTT) assay as discussed previously.[6] The percent inhibition of viability for each concentration of the compounds was calculated with respect to the control, and IC50 values were estimated.
Transfections were performed as described previously.[40] In brief, cells (1.5 × 10^5) were transfected with control siRNA or 40 nM Top1 siRNA (Qiagen) using oligofectamine (Invitrogen) according to the manufacturer’s protocol.

Top1 mobility restored in cells pretreated with CPT (FRAP) [1]: 12–15% | Top1 signal in Western blot [2]: time dependent depletion of Top1 signal
Compound: CN(C)c1ccc(-c2c3nc(c(-c4ccc(N(C)C)cc4)c4ccc([nH]4)c(-c4ccc(C(=O)O)cc4)c4nc(c(-c5ccc(C(=O)O)cc5)c5ccc2[nH]5)C=C4)C=C3)cc1 [Compound 8, 5,10-Bis(4-carboxyphenyl)-15,20-bis(4-dimethylaminophenyl)porphyrin]
Top1 in DNA-containing fractions (apoptotic Top1cc) (Top1cc in MCF7 cells; 20 μM, 12 h): absence of Top1 in the DNA-containing fractions | Effect on CPT-induced cellular Top1-DNA complexes (Top1cc in MCF7 cells; CPT 10 μM 6 h before addition of compound 8 20 μM for 6 h): abrogates CPT-induced cellular Top1-DNA complexes | Cytotoxicity in Top1 knockdown cells compared to Top1 proficient cells [3]: reduced cytotoxicity
